Read-outs that look alike come from different tables or passages of the source.
Columns and labels:
[1] = biological target: T1, TPM3-TRKA fusion protein (Homo sapiens, UniProt P04629); experiment: TPM3-TRKA fusion protein levels in KM12 cells (Western blot); assay type: cell-based; settings: for percent degradation of TPM3-TRKA protein at 0.01 µM: read-out: Degradation (at 10 nM); for relative effectiveness at degrading TRKA: 0.4-30 nM, 8-16 hours, comparison of enantiomers (FIG. 28A-28B)
T1 construct: The resulted chimeric proteins always retain the kinase domain of TRK proteins; TPM3 (fusion partner, N-terminal part of tropomyosin alpha-3, P06753); endogenous in cells; host or cells: KM12 colon cancer cells; the other entry of the earlier key: TPM3 (P06753, Tropomyosin alpha-3 chain)
In short: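 KM12 colon cancer cells were treated with DMSO or compounds at 0.1–100 nM, 0.4–30 nM or other stated concentrations for 4, 8–16 or 16 h. RIPA lysates were BCA-normalized and resolved by SDS-PAGE. TPM3-TRKA was detected by chemiluminescent Western blot, with bands quantified by densitometry.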

[2] = test system: KM12 cells; experiment: KM12 cell viability (CellTiter-Glo); assay type: cell-based; settings: for IC50: Homo sapiens
In short: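 KM12 cells seeded at 5000 per well in RPMI 1640 + 10% FBS and exposed 3 days to serial dilutions (11-point 3-fold, 8-point 3-fold from 1000 nM, or 12-point 2-fold). Viability by CellTiter-Glo; IC50 from least-squares nonlinear regression.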

[3] = 16 h, TPM3-TRKA degradation in KM12 cells at 10 nM compound, category of percentage degradation
[4] = 72 h, KM12 cell viability, CellTiter-Glo, three days treatment, read-out: IC50

T1 sequence (P04629 with tags, fused parts or gaps): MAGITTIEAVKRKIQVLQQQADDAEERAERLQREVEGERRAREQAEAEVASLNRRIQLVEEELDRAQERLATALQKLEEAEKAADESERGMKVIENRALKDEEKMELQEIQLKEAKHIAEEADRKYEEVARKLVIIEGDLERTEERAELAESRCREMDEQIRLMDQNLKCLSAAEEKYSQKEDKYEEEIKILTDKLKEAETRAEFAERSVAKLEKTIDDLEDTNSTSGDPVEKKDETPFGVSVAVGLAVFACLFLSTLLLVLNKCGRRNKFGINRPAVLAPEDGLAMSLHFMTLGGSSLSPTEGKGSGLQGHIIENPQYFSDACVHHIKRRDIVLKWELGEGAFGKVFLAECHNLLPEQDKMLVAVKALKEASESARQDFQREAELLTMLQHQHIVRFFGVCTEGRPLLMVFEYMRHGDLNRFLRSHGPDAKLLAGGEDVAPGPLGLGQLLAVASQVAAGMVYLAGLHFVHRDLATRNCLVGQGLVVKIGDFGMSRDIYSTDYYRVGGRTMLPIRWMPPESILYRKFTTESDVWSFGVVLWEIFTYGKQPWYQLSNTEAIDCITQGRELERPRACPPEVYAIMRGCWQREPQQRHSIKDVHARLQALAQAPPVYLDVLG

Row | Structure (SMILES) | percent degradation of TPM3-TRKA protein at 0.01 µM [1, 3] [%] | IC50 [2, 4] [nM] | also measured
1 | COc1ccc(COc2ccc(Cn3c(N)nc4cc(-c5cnn(CC(=O)NCCNc6cccc7c6C(=O)N(C6CCC(=O)NC6=O)C7=O)c5)cnc43)cc2OC)cc1 (stereo not shown) [CPD-498, 2-(4-(2-amino-3-(3-methoxy-4-((4-methoxybenzyl)oxy)benzyl)-3H-imidazo[4,5-b]pyridin-6-yl)-1H-pyrazol-1-yl)-N-(2-((2-(2,6-dioxopiperidin-3-yl)-1,3-dioxoisoindolin-4-yl)amino)ethyl)acetamide] | – | – | percent degradation of TPM3-TRKA protein at 0.01 µM ([1]; KM12, 16 h): 50 to 80%; IC50 ([2]; KM12, 72 h): 36.5 nM
2 | O=C1CCC(N2C(=O)c3ccc(CN4CC(N5CCN(c6ccc(C(=O)Nc7n[nH]c8ccc(Cc9cc(F)cc(F)c9)cc78)cc6)CC5)C4)cc3C2=O)C(=O)N1 (stereo not shown) [TR-261, N-(5-(3,5-Difluorobenzyl)-1H-indazol-3-yl)-4-(4-(1-((2-(2,6-dioxopiperidin-3-yl)-1,3-dioxoisoindolin-S-yl)methyl)azetidin-3-yl)piperazin-1-yl)benzamide] | – | – | percent degradation of TPM3-TRKA protein at 0.01 µM ([1]; KM12, 16 h): 50 to 80%; IC50 ([2]; KM12, 72 h): 366 nM
3 | O=C1CCC(N2C(=O)c3cccc(NCCCC(=O)N4CCN(c5ccc(C(=O)Nc6n[nH]c7ccc(Cc8cc(F)cc(F)c8)cc67)c(NC6CCOCC6)c5)CC4)c3C2=O)C(=O)N1 (stereo not shown) [CPD-053, N-(5-(3,5-Difluorobenzyl)-1H-indazol-3-yl)-4-(4-(4-((2-(2,6-dioxopiperidin-3-yl)-1,3-dioxoisoindolin-4-yl)amino)butanoyl)piperazin-1-yl)-2-((tetrahydro-2H-pyran-4-yl)amino)benzamide] | > 80 | 1.5 | TPM3-TRKA protein levels ([1]; KM12 cells, 100 nM, indicated incubation time, Western blot (FIG. 2)): rapidly reduced TPM3-TRKA protein levels; viability of KM12 cells ([2]; 500 nM, 12-point 2-fold serial dilution, 3 days (FIG. 4A)): inhibited the viability of KM12 cells; viability of KM12 cells ([2]; 1000 nM, 8-point 3-fold serial dilution, 3 days (FIG. 4B)): significantly inhibited the viability of KM12 cells
4 | O=C1CCC(N2C(=O)c3ccc(NCCN4CCN(c5ccc(C(=O)Nc6n[nH]c7ccc(Cc8cc(F)cc(F)c8)cc67)c(NCCF)c5)CC4)cc3C2=O)C(=O)N1 (stereo not shown) [TR-268, N-(5-(3,5-Difluorobenzyl)-1H-indazol-3-yl)-4-(4-(2-((2-(2,6-dioxopiperidin-3-yl)-1,3-dioxoisoindolin-5-yl)amino)ethyl)piperazin-1-yl)-2-((2-fluoroethyl)amino)benzamide] | > 80 | 6.2 | –
5 | O=C1CCC(N2C(=O)c3ccc(CN4CC(N5CCN(c6ccc(C(=O)Nc7n[nH]c8ccc(Cc9cc(F)cc(F)c9)cc78)c(NCCF)c6)CC5)C4)cc3C2=O)C(=O)N1 (stereo not drawn) [TR-252, N—(S-(3,5-Difluorobenzyl)-1H-indazol-3-yl)-4-(4-(1-((2-(2,6-dioxopiperidin-3-yl)-1,3-dioxoisoindolin-5-yl)methyl)azetidin-3-yl)piperazin-1-yl)-2-((2-fluoroethyl)amino)benzamide] | – | – | percent degradation of TPM3-TRKA protein at 0.01 µM ([1]; KM12, 16 h): > 80%; IC50 ([2]; KM12, 72 h): 47.6 nM
6 | Cc1nc2cccc(N3CC(CCN4CCN(c5ccc(C(=O)Nc6n[nH]c7ccc(Cc8cc(F)cc(F)c8)cc67)c(NC6CCOCC6)c5)CC4)C3)c2c(=O)n1C1CCC(=O)NC1=O (stereo not shown) [TR-334, N-(5-(3,5-Difluorobenzyl)-1H-indazol-3-yl)-4-(4-(2-(1-(3-(2,6-dioxopiperidin-3-yl)-2-methyl-4-oxo-3,4-dihydroquinazolin-5-yl)azetidin-3-yl)ethyl)piperazin-1-yl)-2-((tetrahydro-2/-pyran-4-yl)amino)benzamide] | 50 to 80 | 24.6 | –

Second part, led by results:

Row | percent degradation of TPM3-TRKA protein at 0.01 µM [1, 3] [%] | Structure (SMILES) | IC50 [2, 4] [nM] | also measured
7 | > 80 | O=C1CC[C@H](N2C(=O)c3ccc(N4CC(N5CCN(c6ccc(C(=O)Nc7n[nH]c8ccc(Cc9cc(F)cc(F)c9)cc78)c(NC7CCOCC7)c6)CC5)C4)cc3C2=O)C(=O)N1 [TR-343, (S)—N-(5-(3,5-difluorobenzyl)-1H-indazol-3-yl)-4-(4-(1˜ (2-(2,6-dioxopiperidin-3-yl)-1,3-dioxoisoindolin-5-yl)azetidin-3-yl)piperazin-1-yl)-2-((tetrahydro-2H-pyran-4-yl)amino)benzamide] | 9 | relative effectiveness at degrading TRKA ([1]; KM12 cells): more effective at degrading TRKA at lower concentrations than TR-344
8 | < 50 | Cn1c(=O)n(C2CCC(=O)NC2=O)c2cccc(OCCN3CCN(c4cccc(-c5cnc6ccc(N7CCC[C@@H]7c7cccc(F)c7)nn56)n4)CC3)c21 (stereo partly drawn) [TR-244, 3-(4˜ (2-(4-(6-(6-((R)-2-(3-Fluorophenyl)pyrrolidin-1-yl)imidazo[1,2-b]pyridazin-3-yl)pyridin-2-yl)piperazin-1-yl)ethoxy)-3-methyl-2-oxo-2,3-dihydro-1H-benzo[d]imidazol-1-yl)piperidine-2,6-dione] | 298 | –
9 | > 80 | CC(C1CN(c2ccc3c(c2)C(=O)N(C2CCC(=O)NC2=O)C3=O)C1)N1CCN(c2ccc(C(=O)Nc3n[nH]c4ccc(Cc5cc(F)cc(F)c5)cc34)c(NC3CCOCC3)c2)CC1 (stereo not shown) [TR-301, N-(5-(3,5-difluorobenzyl)-1H-indazol-3-yl)-4-(4-(1-(1-(2-(2,6-dioxopiperidin-3-yl)-1,3-dioxoisoindolin-5-yl)azetidin-3-yl)ethyl)piperazin-1-yl)-2-((tetrahydro-2H-pyran-4-yl)amino)benzamide] | 6 | –
10 | > 80 | O=C1CCC(N2C(=O)c3ccc(N4CC(CN5CCN(c6ccc(C(=O)Nc7n[nH]c8ccc(Cc9cc(F)cc(F)c9)cc78)cc6)CC5)C4)cc3C2=O)C(=O)N1 (stereo not shown) [TR-265, N-(5˜ (3,5-difluorobenzyl)-1H-indazol-3-yl)-4-(4-((1-(2-(2,6-dioxopiperidin-3-yl)-1,3-dioxoisoindolin-5-yl)azetidin-3-yl)methyl)piperazin-1-yl)benzamide] | 13.3 | –
11 | > 80 | O=C1CC[C@@H](N2C(=O)c3ccc(N4CC(N5CCN(c6ccc(C(=O)Nc7n[nH]c8ccc(Cc9cc(F)cc(F)c9)cc78)c(NC7CCOCC7)c6)CC5)C4)cc3C2=O)C(=O)N1 [TR-344, (R)—N—(S-(3,5-difluorobenzyl)-1H-indazol-3-yl)-4-(4-(1-(2-(2,6-dioxopiperidin-3-yl)-1,3-dioxoisoindolin-5-yl)azetidin-3-yl)piperazin-1-yl)-2-((tetrahydro-2H-pyran-4-yl)amino)benzamide] | 9 | –
12 | > 80 | O=C1CCC(N2C(=O)c3ccc(N4CCC5(CC(N6CCN(c7ccc(C(=O)Nc8n[nH]c9ccc(Cc%10cc(F)cc(F)c%10)cc89)c(NC8CCOCC8)c7)CC6)C5)C4)cc3C2=O)C(=O)N1 (stereo not shown) [TR-290, N-(5-(3,5-difluorobenzyl)-1H-indazol-3-yl)-4-(4-(6-(2-(2,6-dioxopiperidin-3-yl)-1,3-dioxoisoindolin-5-yl)-6-azaspiro[3.4]octan-2-yl)piperazin-1-yl)-2-((tetrahydro-2H-pyran-4-yl)amino)benzamide] | 11.2 | –
13 | > 80 | O=C1CC[C@@H](N2C(=O)c3ccc(N4CC(CN5CCN(c6ccc(C(=O)Nc7n[nH]c8ccc(Cc9cc(F)cc(F)c9)cc78)c(NC7CCOCC7)c6)CC5)C4)cc3C2=O)C(=O)N1 [TR-342, (R)—N-(5-(3,5-difluorobenzyl)-1H-indazol-3-yl)-4-(4-((1-(2-(2,6-dioxopiperidin-3-yl)-1,3-dioxoisoindolin-5-yl)azetidin-3-yl)methyl)piperazin-1-yl)-2-((tetrahydro-2H-pyran-4-yl)amino)benzamide] | 3 | relative effectiveness at degrading TRKA ([1]; KM12 cells): more effective at degrading TRKA at lower concentrations than TR-342
14 | > 80 | Cn1c(=O)n(C2CCC(=O)NC2=O)c2ccc(NCCCN3CCN(c4cccc(-c5cnc6ccc(N7CCC[C@@H]7c7cccc(F)c7)nn56)n4)CC3)cc21 (stereo partly drawn) [TR-221, 3-[5-[3-[4-[6-[6-[(2R)-2-(3-fluorophenyl)pyrrolidin-1-yl]imidazo[1,2-b]pyridazin-3-yl]-2-pyridyl]piperazin-1-yl]propylamino]-3-methyl-2-oxo-benzimidazol-1-yl]piperidine-2,6-dione] | 7.8 | –
15 | > 80 | O=C1CCC(N2C(=O)c3ccc(N4CCOC(CN5CCN(c6cccc(-c7cnc8ccc(N9CCC[C@@H]9c9cccc(F)c9)nn78)n6)CC5)C4)cc3C2=O)C(=O)N1 (stereo partly drawn) [TR-286, 2-(2,6-dioxopiperidin-3-yl)-5-(2-((4-(6-(6-((R)-2-(3-fluorophenyl)pyrrolidin-1-yl)imidazo[1,2-b]pyridazin-3-yl)pyridin-2-yl)piperazin-1-yl)methyl)morpholino) isoindoline-1,3-dione] | 7.8 | –
16 | > 80 | O=C1CCC(N2C(=O)c3ccc(N4CCC(N5CCN(c6ccc(C(=O)Nc7n[nH]c8ccc(Cc9cc(F)cc(F)c9)cc78)c(NC7CCOCC7)c6)CC5)C4)cc3C2=O)C(=O)N1 (stereo not shown) [TR-284, N-(5-(3,5-difluorobenzyl)-1H-indazol-3-yl)-4-(4-(1-(2-(2,6-dioxopiperidin-3-yl)-1,3-dioxoisoindolin-5-yl)pyrrolidin-3-yl)piperazin-1-yl)-2-((tetrahydro-2H-pyran-4-yl)amino)benzamide] | 5 | –

From patent US12410171B2, “Tropomyosin receptor kinase (TRK) degradation compounds and methods of use” (Cullgen (Shanghai), Inc., priority 2020, dated 2025)
